In patent US20140331363A1, “PLANTS WITH ALTERED GLUCURONOXYLAN METHYL TRANSFERASE ACTIVITY AND METHODS OF USE” (UNIVERSITY OF GEORGIA RESEARCH FOUNDATION, INC., priority 2011, published 2014):
One block for each compound: values may come before it.

What was measured:
GXMT1 [1] = target: T1, GXMT1 (Arabidopsis thaliana, UniProt Q9LQ32); experiment: GXMT1 4-O-methyltransferase activity of metal-depleted enzyme, SAH formation by LC-ESI-MS; assay type: biochemical; conditions: for effect on GXMT1 enzyme activity: metal salts or EDTA at 1 mM, metal-depleted GXMT1
T1 construct: made in house; host or cells: E. coli BL21-CodonPlus (DE3)-RIPL, pGEX-5X1 vector
T1 sequence (Q9LQ32 44-297): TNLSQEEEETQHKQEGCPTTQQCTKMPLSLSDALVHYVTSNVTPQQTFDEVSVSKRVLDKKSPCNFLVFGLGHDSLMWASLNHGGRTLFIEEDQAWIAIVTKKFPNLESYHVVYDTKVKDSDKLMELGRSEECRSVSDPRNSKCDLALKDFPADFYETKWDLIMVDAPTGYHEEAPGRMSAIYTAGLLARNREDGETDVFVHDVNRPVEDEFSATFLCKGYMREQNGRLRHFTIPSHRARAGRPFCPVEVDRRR
Protocol: The transfer of a methyl group from SAM to GlcA results in the formation of S-adenosyl homocysteine (SAH). The amounts of SAH formed were determined by LC-ESI-MS (Salyan et al., 2006, Anal Biochem 349:112-117). (B) The effect on GXMT activity of different divalent metals. Protein and buffer solutions were treated with Chelex-100 resin to remove divalent cations prior to initiating the methylation reaction. Metal salts or EDTA were used at a concentration of 1 mM. […] Reaction mixtures were allowed to equilibrate to the specified temperature for 30 min and then the methylation reaction was initiated by the addition of SAMe (15 mM).
Determination of methyltransferase activity using LC-ESI-MS. Glucuronoxylan 4-O-methyltransferase activity was determined using a liquid chromatography-electrospray ionization/mass spectroscopy (LC-ESI-MS) method using selective reaction monitoring (SRM) that measures the formation of S-adenosylhomocysteine from SAM (S17). LC-ESI-MS analyses were performed on a LTQ-XL linear ion trap mass spectrometer (ThermoFisher, Waltham, Mass.) equipped with a Surveyor MS Pump Plus HPLC, a Surveyor Autosampler Plus. Chromatographic separation was as described (Salyan et al., 2006, Anal Biochem 349:112-117). S-adenosylhomocysteine (SAH) eluted at 3.2 min. Thus, the material eluting between 2.5 and 5 min was transferred to the mass spectrometer using an in-line divert/inject valve. The selected reaction monitoring transition used was 385.1>250.1 with a collision energy of 20%. The detection limit was 60.25 nM S-adenosylhomocysteine with a linear response up to 3 μM. […]

GXMT1 [2] = target: T1, GXMT1; experiment: GXMT1 methyltransferase activity monitored by 1H NMR (GlcA methylation of gxmt1-1 glucuronoxylan); assay type: biochemical
Protocol: FIG. 12. […] After 48 hours the products formed were treated with endoxylanase and the resulting oligosaccharides were characterized by ^1H NMR spectroscopy. The extent of GlcA methylation was determined by integration of the GlcA (U) and 4-O-methyl GlcA (M) H1 signals (see FIG. 1B).
Determination of Methyltransferase Activity using ^1H-NMR Spectroscopy and LC-ESI-MS. The temperature optimum for GXMT1 activity was between 19-25° C. (FIG. 10C). The transfer of methyl groups to O-4 of GlcA was established by ^1H NMR spectroscopy. Assays were performed at 23° C. in 50 mM potassium bicarbonate, pH 7.5, (250 μL) containing acceptor substrate equivalent to 2.27 mM available GlcA residues, recombinant GXMT1 (10 μM), CoCl2 (2 mM) and 1.5 mM S-adenosyl-L-methionine sulfate p-toluenesulfonate, unless otherwise indicated. The formation of SAH from SAM was determined using LC-ESI-MS (Salyan et al., 2006, Anal Biochem 349:112-117). […] Details of both assays are in Example 2.
Monitoring methyltransferase activity by ^1H-NMR spectroscopy. […] The dry reaction products were dissolved in 0.25 mL D2O and analyzed by ^1H-NMR spectroscopy. Spectra were recorded before and after endoxylanase treatment, when polymeric xylan was used as a substrate.

SMILES: [Cl-].[Cl-].[Co+2] [Co^2+]
enhancement of GXMT1 activity (GXMT1 [1]; metal salts at 1 mM, metal-depleted GXMT1 3.4 μM, 180 min, average): 1,180%

effect on GXMT1 enzyme activity (GXMT1 [1]): completely inhibited
SMILES: [Cu+2] [Cu^2+]

SMILES: O=C(O)CN(CCN(CC(=O)O)CC(=O)O)CC(=O)O [EDTA]
effect on GXMT1 enzyme activity (GXMT1 [1]): completely inhibited

reduction of O-methyl transferase activity (GXMT1 [2]; 1.5 mM SAH with SAM, 10 μM GXMT1, 48 hours): over 50%
effect on in vitro GXMT1 activity (GXMT1 [2]; SAH added at the start of the reaction): inhibited
SMILES: Nc1ncnc2c1ncn2[C@@H]1O[C@H](CSCC[C@H](N)C(=O)O)[C@@H](O)[C@H]1O [SAH, S-adenosyl-L-homocysteine]
